Entries after “also recorded” stand apart in the source; their conditions may differ. Like-named read-outs stand apart in the source and are kept apart here. Blank lines part the entries; values can stand above or below the molecule they belong to.
How the values were obtained:
[1] = Evaluation of transferability to posterior eye segment in rats (I-1) and (I-2); assay type: in vivo; conditions: SDT, rat, oral repetitive administration 1.0 mg/kg once a day for 21 days, 60 minutes after final administration
Experimental: To both eyes of rat model of diabetes, ophthalmic suspension formulation A1 wherein Compound A was suspended in a generally-tolerated dose as a suspension formulation (200 mg/mL) or ophthalmic solution formulation Z wherein Compound A was dissolved (400 μg/mL) was administered in eyedrops in the amount of 5 μL for one eye (which is a maximum tolerated dose for eyedrops in rats) totally 5 times at intervals of 5 minutes. 60 minutes after the administration, each concentration of Compound A in cornea, retina and plasma was measured.
Eyedrop has a limitation about tolerated volume of one shot, which is different from other dosage forms. Thus, the delivery amount of the drug to the target tissue which is obtained from eyedrop of a maximum tolerated dose is important. The tolerated volume varies depending on animal species, and the maximum volume in rats is 5 μL for one eye. […]
In addition, Diabetic Retinopathy, INTECH, Chapter 15 “Prophylactic Medical Treatment of Diabetic Retinopathy”, Akihiro Kakehashi et al. disclose an experiment of oral repetitive administration of Compound A to SDT rats, wherein the dose of Compound A making the retinal capillary weakened and the VEGF production in retina inhibited is 1.0 mg/kg. […] 60 minutes after the final administration, each concentration of Compound A in cornea, retina and plasma was measured.

[2] = Evaluation of transferability to posterior eye segment in rats (V); assay type: in vivo, SD rats; conditions: ophthalmic suspension formulations, eyedrops 5 μL for one eye once; 60 minutes after administration
Experimental: To both eyes of SD rats, ophthalmic formulation I, ophthalmic formulation F, ophthalmic formulation G, ophthalmic formulation X1, ophthalmic formulation X2, ophthalmic formulation Y1, or ophthalmic formulation Y2 was administered in eyedrops in the amount of 5 μL for one eye once. 60 minutes after the administration, each concentration of Compound A in retina was measured.

[3] = system: normal human retinal capillary endothelial cell (HREC); assay: Cell migration assay: inhibition of facilitatory action of cell migration by VEGF stimulation; assay type: cell-based
Experimental: The anti-VEGF action of Compound A was evaluated by an experimental method (cell migration assay) described in J Diabetes Complications. 2012; 26(5):369-77. In the experiment, a normal human retinal capillary endothelial cell (HREC) which was obtained from Cell System Co., LTD. was used, and a cell culture used herein was CS-C medium (Cell System Co., LTD.). […] As for Lucentis, its formulation stock solution was diluted with the cell culture, wherein the dilution ratio was 50 μL of the formulation stock solution per 4 mL of the cell culture, and the diluted solution was used in the experiment. The HREC was seeded in 6-well plate, and it was incubated until the confluency became 80-90%. 20-24 hours before assaying the cell migration by the VEGF stimulation, the cell culture was changed to a cell culture containing 0.1% fetal bovine serum. Then, the culture cell monolayer was wounded with a 200 μL pipette tip at one point per well, and the width of the wounds were measured with a microscope. […] About 18 hours after changing the cell culture, each width of the wounds was measured with a microscope, and the anti-VEGF action was evaluated by comparing the width with that of the just-wounded one.

aldose reductase = aldose reductase (Homo sapiens, UniProt P15121); assay: AR inhibitory action; assay type: biochemical
[4] = system: VEGF production in retina; conditions: oral repetitive administration, SDT rats; cited from earlier work

Molecule: O=C1C[C@@]2(C(=O)N1)C(=O)N(Cc1ccc(Br)cc1F)C(=O)c1cccn12 [Compound A, (R)-(−)-2-(4-bromo-2-fluorobenzyl)-1,2,3,4-tetrahydropyrrolo[1,2-a]pyrazine-4-spiro-3′-pyrrolidine-1,2′,3,5′-tetrone]
- Kp at 60 min ([1]; cornea and plasma (cornea/plasma ratio), read-out: concentration ratio cornea to plasma (plasma:cornea:retina, plasma = 1)): ~1
- Kp at 60 min ([1]; retina and plasma (retina/plasma ratio), po, 1 mg/kg, read-out: retina/plasma ratio): ~1
- delivery to retina [2]: delivered to retina much more than the ophthalmic suspension formulation comprising Compound B or C
- action inhibiting the HREC migration, comparison ([3]; 1 nM Compound A, VEGF stimulation, about 18 hours): in the same level as that of 100 nM ((28 ng/mL)/L) Compound C; also recorded: more potent than that of 1000 nM ((320 ng/mL)/L) Compound B; also recorded: in the same level as Lucentis
- Ki (aldose reductase): 0.23 nM
- AR inhibitory action, action ratio relative to Compound A (aldose reductase; figure in brackets): 1.0 ×
- oral dose making the retinal capillary weakened and the VEGF production in retina inhibited [4]: 1.0 mg/kg

B1: Lucentis: anti-VEGF antibody formulation (general name: ranibizumab) (antibody, chains of the INN, looked up, V domains shown)
VH: EVQLVESGGGLVQPGGSLRLSCAASGYDFTHYGMNWVRQAPGKGLEWVGWINTYTGEPTYAADFKRRFTFSLDTSKSTAYLQMNSLRAEDTAVYYCAKYPYYYGTSHWYFDVWGQGTLVTVSS
VL: DIQLTQSPSSLSASVGDRVTITCSASQDISNYLNWYQQKPGKAPKVLIYFTSSLHSGVPSRFSGSGSGTDFTLTISSLQPEDFATYYCQQYSTVPWTFGQGTKVEIK
- inhibition of HREC migration facilitated by VEGF stimulation ([3]; about 18 hours after changing the cell culture): inhibited the migration

Further lines, results first:

- delivery to retina [2]: hardly delivered to retina
Molecule: CC(/C=C1\SC(=S)N(CC(=O)O)C1=O)=C\c1ccccc1 [Compound B, [5-[(1Z,2E)-2-methyl-3-phenylallylidene]-4-oxo-2-thioxothiazolidin-3-yl]acetic acid]

- delivery to retina [2]: hardly delivered to retina
Molecule: NC(=O)[C@@H]1C[C@]2(NC(=O)NC2=O)c2cc(F)ccc2O1 [Compound C, (2S,4S)-6-fluoro-2′,5′-dioxospiro[chroman-4,4′-imidazolidine]-2-carboxamide]
